Values of other authors, collected in PMC12675671 (Nature Communications, 2025).

Test system: WT LRRK2

For `COc1cc(C(=O)N2CCC(N3CCN(C)CC3)CC2)ccc1Nc1ncc2c(n1)N(C)c1ccccc1C(=O)N2C` [LRRK2-IN-1], the “pIC50 (experimental values), WT” value is given as 8.509.
